Structures can show the parent of a compound that is named as a salt. Where two headings read alike, the source gives them in different places.

Assay [1] relates to MOLM14 cells. Nature of the assay: Proliferation assay (spheroid growth, 8 days), MOLM14.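 Also: spheroid size read as confluence by live-cell imaging, compounds added at a range of concentrations with 0.3% DMSO, DMSO-treated wells = 0%, highest reference dose = low control.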 The assay is classed as cell-based, human. To be noted: MOLM14, 8 days, read-out: spheroid assay_OneTime MOLM14 IC50.
Assay [2] concerns OCI-AML3 cells. Description: Proliferation assay (spheroid growth, 8 days), OCI-AML3. The following applies: OCI-AML3, 8 days. The assay is classed as cell-based, human. As for the experimental part:
The anti-proliferative effect of menin/MLL protein/protein interaction inhibitor test compounds was assessed in human leukemia cell lines. The cell line MOLM14 harbors a MLL translocation and expresses the MLL fusion protein MLL-AF9, respectively, as well as the wildtype protein from the second allele. OCI-AML3 cells that carry the NPM1c gene mutation were also tested. […] KO-52 was used as a control cell line containing two MLL (KMT2A) wildtype alleles in order to exclude compounds that display general cytotoxic effects.
KO-52 and OCI-AML3 cell lines were propagated in alpha-MEM (Sigma Aldrich) supplemented with 20% heat-inactivated fetal bovine serum (HyClone), 2 mM L-glutamine (Sigma Aldrich) and 50 μg/ml gentamycin (Gibco).
In order to assess the anti-proliferative effects, 200 MOLM14 cells, 200 OCI-AML3 cells or 300 KO-52 cells were seeded in 200 μl media per well in […] round bottom, ultra-low attachment plates (Costar, catalogue number 7007). Cell seeding numbers were chosen based on growth curves to ensure linear growth throughout the experiment. Test compounds were added at different concentrations and the DMSO content was normalized to 0.3%. Cells were incubated for 8 days at 37° C. and 5% CO2. Spheroid like growth was measured in real-time by live-cell imaging (IncuCyteZOOM, Essenbio, 4× objective) acquiring images at day 8. Confluence (%) as a measure of spheroid size was determined using an integrated analysis tool.
In order to determine the effect of the test compounds over time, the confluence in each well as a measure of spheroid size, was calculated. Confluence of the highest dose of a reference compound was used as baseline for the LC (Low control) and the confluence of DMSO treated cells was used as 0% cytotoxicity (High Control, HC).
GraphPad Prism(version 7.00) was used to calculate the IC50. Dose-response equation was used for the plot of % Effect vs Log 10 compound concentration with a variable slope and fixing the maximum to 100% and the minimum to 0%.

Assay [3] deals with menin/MLL (terbium chelate-labeled menin, FITC-MBM1 peptide) (Homo sapiens (Human), UniProt O00255). Nature of the assay: Menin/MLL homogenous time-resolved fluorescence (HTRF) assay.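 Also: IC50 from percent inhibition of HTRF signal, normalized between wells without competitor and wells with a saturating competitor that displaces FITC-MBM1 from His-tagged menin.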 The assay is classed as binding.
In assay [4] the test system is MEIS1 mRNA. Description: MEIS1 mRNA expression assay (Quantigene Singleplex) in MOLM14 cells.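 Also: MEIS1 transcript levels read by probe hybridization and normalized to RPL28 mRNA, with IC50 fitted to fold changes across a rising compound concentration series.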 Type of assay: cell-based, human. To be noted: 48 hours incubation.
The mark [5] stands for this setting: read-out: HTRF-30 min incubation IC50, 30 min incubation.
The mark [6] stands for this setting: HTRF-30 min incubation IC50, 30 min incubation.

menin/MLL (terbium chelate-labeled menin, FITC-MBM1 peptide), sequence (O00255 other isoform, or with tags, fused parts or gaps): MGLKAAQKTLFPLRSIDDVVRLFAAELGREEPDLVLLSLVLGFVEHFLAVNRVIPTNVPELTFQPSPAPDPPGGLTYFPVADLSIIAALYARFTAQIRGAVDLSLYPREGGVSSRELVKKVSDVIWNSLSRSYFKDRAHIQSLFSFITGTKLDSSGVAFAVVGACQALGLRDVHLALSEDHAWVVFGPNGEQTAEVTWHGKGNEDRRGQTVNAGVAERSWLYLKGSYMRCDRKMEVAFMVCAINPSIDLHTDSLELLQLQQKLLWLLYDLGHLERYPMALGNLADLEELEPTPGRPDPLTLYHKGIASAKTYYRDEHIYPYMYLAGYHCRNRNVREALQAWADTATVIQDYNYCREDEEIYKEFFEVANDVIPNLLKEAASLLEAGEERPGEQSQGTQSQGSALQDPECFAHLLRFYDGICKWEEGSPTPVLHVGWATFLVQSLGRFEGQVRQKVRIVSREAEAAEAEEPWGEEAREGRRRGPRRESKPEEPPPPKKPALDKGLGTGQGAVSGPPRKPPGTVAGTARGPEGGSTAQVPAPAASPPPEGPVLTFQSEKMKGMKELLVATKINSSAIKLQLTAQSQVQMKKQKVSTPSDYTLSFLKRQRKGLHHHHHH

With `CC(C)[C@H](CCCN(C)C)N1CC2(CCN(c3ccnnc3Oc3ccc(F)cc3C(=O)N(C(C)C)C(C)C)C2)C1` (single isomer, unassigned) [Compound 76, (*S)-2-((4-(2-(6-(dimethylamino)-2-methylhexan-3-yl)-2,6-diazaspiro[3.4]octan-6-yl)pyridazin-3-yl)oxy)-5-fluoro-N,N-diisopropylbenzamide], the IC50 in assay [1] stood at 340 nM; in assay [2], 2390 nM; in assay [3] (setting [5]), 2.56 nM.
Consider `CCN(C(=O)c1cc(F)ccc1Oc1nnc(Cl)nc1N1CCC2(C1)CN([C@H](CCCN)C(C)C)C2)C(C)C` [Compound 406, (R)-2-((5-(2-(6-amino-2-methylhexan-3-yl)-2,6-diazaspiro[3.4]octan-6-yl)-3-chloro-1,2,4-triazin-6-yl)oxy)-N-ethyl-5-fluoro-N-isopropylbenzamide formate], for which the IC50 in assay [1] (Homo sapiens, MOLM-14, […]) was found to be 220 nM; in assay [2] (Homo sapiens, OCI-AML-3, […]), 490 nM; in assay [3] (setting [6]), 0.033 nM; in assay [4] (Homo sapiens, MOLM-14, 48 h), 130 nM.
For `CCN(C(=O)c1cc(F)ccc1Oc1nncnc1N1CCC2(C1)CN([C@H](CCN(C)CC(N)=O)C(C)C)C2)C(C)C` (single isomer, unassigned) [Compound 231, (*R)-2-((5-(2-(1-amino-2-oxoethyl)(methyl)amino)-4-methylpentan-3-yl)-2,6-diazaspiro[3.4]octan-6-yl)-1,2,4-triazin-6-yl)oxy)-N-ethyl-5-fluoro-N-isopropylbenzamide], in that order: 790 nM, 1800 nM, 1.77 nM and roughly 560 nM.
For `CCN(C(=O)c1cc(F)ccc1Oc1nncnc1N1CC2(CCN(C(CCCN(C)CCOC)C(C)C)C2)C1)C(C)C` (stereo not drawn) [Compound 302, N-ethyl-5-fluoro-N-isopropyl-2-((5-(6-(6-((2-methoxyethyl)(methyl)amino)-2-methylhexan-3-yl)-2,6-diazaspiro[3.4]octan-2-yl)-1,2,4-triazin-6-yl)oxy)benzamide fumarate], in that order: 97 nM, 770 nM, 0.26 nM and 160 nM.
Regarding `CCN(C(=O)c1cc(F)ccc1Oc1nncnc1N1CCC2(C1)CN([C@@H](CCN(C)C)C(C)C)C2)C(C)C` (single isomer, unassigned) [Compound 225, (*S)-2-((5-(2-(1-(dimethylamino)-4-methylpentan-3-yl)-2,6-diazaspiro[3.4]octan-6-yl)-1,2,4-triazin-6-yl)oxy)-N-ethyl-5-fluoro-N-isopropylbenzamide fumarate], the IC50 in assay [1] (Homo sapiens, MOLM-14, […]) was greater than 940 nM; in assay [2] (Homo sapiens, OCI-AML-3, […]), 7090 nM; in assay [3] (setting [6]), 8.31 nM; in assay [4] (Homo sapiens, MOLM-14, 48 h) it was greater than 1000 nM.
For `CCN(C(=O)c1cc(F)ccc1Oc1nnc(NC)nc1N1CCC2(C1)CN([C@H](CCCN(C)CCOC)C(C)C)C2)C(C)C` [Compound 395, (R)-N-ethyl-5-fluoro-N-isopropyl-2-((5-(2-(6-((2-methoxyethyl)(methyl)amino)-2-methylhexan-3-yl)-2,6-diazaspiro[3.4]octan-6-yl)-3-(methylamino)-1,2,4-triazin-6-yl)oxy)benzamide formate], in that order: 56 nM, 280 nM, 0.2 nM and 140 nM.
Consider `CCN(C(=O)c1cc(F)ccc1Oc1nncnc1N1CCC2(C1)CN([C@@H](CCO)C(C)C)C2)C(C)C` (single isomer, unassigned) [Compound 215, (*S)—N-ethyl-5-fluoro-2-((5-(2-(1-hydroxy-4-methylpentan-3-yl)-2,6-diazaspiro[3.4]octan-6-yl)-1,2,4-triazin-6-yl)oxy)-N-isopropylbenzamide], for which the IC50 in assay [1] was 1490 nM; in assay [2] it was 9240 nM; in assay [3] (setting [5]), 88.8 nM; in assay [4], greater than 1000 nM.
For the compound `CC(C)[C@H](C[C@H](O)CN(C)C)N1CC2(CCN(c3ncnnc3Oc3ccc(F)cc3C(=O)N(C(C)C)C(C)C)C2)C1` (single isomer, unassigned) [Compound 369, 2-((5-(2-((3*S,5*S)-6-(dimethylamino)-5-hydroxy-2-methylhexan-3-yl)-2,6-diazaspiro[3.4]octan-6-yl)-1,2,4-triazin-6-yl)oxy)-5-fluoro-N,N-diisopropylbenzamide fumarate], the IC50 in assay [1] (Homo sapiens, MOLM-14, […]) was 420 nM; in assay [3] (setting [6]), 1.82 nM; in assay [4] (Homo sapiens, MOLM-14, 48 h), roughly 360 nM.
`CCN(C(=O)c1cc(F)ccc1Oc1nnc(OC)nc1N1CCC2(C1)CN([C@H](CCCN(C)C)C(C)C)C2)C(C)C` [Compound 410, (R)-2-((5-(2-(6-(dimethylamino)-2-methylhexan-3-yl)-2,6-diazaspiro[3.4]octan-6-yl)-3-methoxy-1,2,4-triazin-6-yl)oxy)-N-ethyl-5-fluoro-N-isopropylbenzamide formate]: the IC50 turned out to be 160 nM in assay [1] (Homo sapiens, MOLM-14, […]); 380 nM in assay [2] (Homo sapiens, OCI-AML-3, […]); 0.12 nM in assay [3] (setting [6]); 120 nM in assay [4] (Homo sapiens, MOLM-14, 48 h).
For `CCN(C(=O)c1cc(F)ccc1Oc1nnc(NC)nc1N1CCC2(C1)CN([C@H](CCCN)C(C)C)C2)C(C)C` [Compound 409, (R)-2-((5-(2-(6-amino-2-methylhexan-3-yl)-2,6-diazaspiro[3.4]octan-6-yl)-3-(methylamino)-1,2,4-triazin-6-yl)oxy)-N-ethyl-5-fluoro-N-isopropylbenzamide hydrochloride], in that order: 640 nM, 1850 nM, 0.12 nM and roughly 440 nM.
Consider “N-ethyl-(2-(((3-(2-(5 ethyl(methyl)amino)-5-methoxy-2-methylhexan-3-yl-2,&6-diazaspiro[3.4]octan-6-yl)-1,2,4-triazin-6-yl)oxy)-5-fluoro-N-isopropylbenzamide [Compound 313]”, for which the IC50 was 1.99 nM in assay [3] (setting [5]) and roughly 260 nM in assay [4].
Turning to `CCN(C)C[C@H](O)C[C@@H](C(C)C)N1CC2(CCN(c3ncnnc3Oc3ccc(F)cc3C(=O)N(CC)C(C)C)C2)C1` (relative stereo) [Compound 347, N-ethyl-2-((5-(2-((3*S,5R)-6-(ethyl(methyl)amino)-5-hydroxy-2-methylhexan-3-yl)-2,6-diazaspiro[3.4]octan-6-yl)-1,2,4-triazin-6-yl)oxy)-5-fluoro-N-isopropylbenzamide formate], the IC50 was greater than 940 nM in assay [1] (Homo sapiens, MOLM-14, […]); 4980 nM in assay [2] (Homo sapiens, OCI-AML-3, […]); 12 nM in assay [3] (setting [6]); greater than 1000 nM in assay [4] (Homo sapiens, MOLM-14, 48 h).
On to `CCN(C(=O)c1cc(F)ccc1Oc1nncnc1N1CCC2(C1)CN([C@H](C[C@H](CN(C)C)OC)C(C)C)C2)C(C)C` (single isomer, unassigned) [Compound 314, 2-((5-(2-((3*R,5*R)-6-(dimethylamino)-5-methoxy-2-methylhexan-3-yl)-2,6-diazaspiro[3.4]octan-6-yl)-1,2,4-triazin-6-yl)oxy)-N-ethyl-5-fluoro-N-isopropylbenzamide fumarate], for which the IC50 in assay [1] (Homo sapiens, MOLM-14, […]) is 300 nM; in assay [3] (setting [6]) it was 1.53 nM; in assay [4] (Homo sapiens, MOLM-14, 48 h) it was 160 nM.
Regarding `COCCN(C)CCC[C@H](C(C)C)N1CC2(CCN(c3ncnnc3Oc3ccc(F)cc3C(=O)N([13CH2][13CH3])[13CH]([13CH3])[13CH3])C2)C1.O=C(O)C(=O)O` [Compound 402], the IC50 stood at 7 nM in assay [1] (Homo sapiens, MOLM-14, […]) and 40 nM in assay [2] (Homo sapiens, OCI-AML-3, […]).
`CCN(C(=O)c1cc(F)ccc1Oc1nncnc1N1CCC2(C1)CN(C(C(C)C)C(C)CCN(C)CCOC)C2)C(C)C` (single isomer, unassigned) [Compound 265, N-ethyl-5-fluoro-N-isopropyl-2-((5-(2-(6-((2-methoxyethyl)(methyl)amino)-2,4-dimethylhexan-3-yl)-2,6-diazaspiro[3.4]octan-6-yl)-1,2,4-triazin-6-yl)oxy)benzamide (mixture of R,S and S,R; or mixture of RR and S,S) fumarate]: the IC50 in assay [1] (Homo sapiens, MOLM-14, […]) was 28 nM; in assay [2] (Homo sapiens, OCI-AML-3, […]), 61 nM; in assay [3] (setting [6]), 0.29 nM.
Turning to `CCN(C)C[C@@H](O)C[C@@H](C(C)C)N1CC2(CCN(c3ncnnc3Oc3ccc(F)cc3C(=O)N(CC)C(C)C)C2)C1` (single isomer, unassigned) [Compound 343, N-ethyl-2-((5-(2-((3*S,5S)-6-(ethyl(methyl)amino)-5-hydroxy-2-methylhexan-3-yl)-2,6-diazaspiro[3.4]octan-6-yl)-1,2,4-triazin-6-yl)oxy)-5-fluoro-N-isopropylbenzamide fumarate], the IC50 in assay [3] (setting [6]) is roughly 3.93 nM; in assay [4] (Homo sapiens, MOLM-14, 48 h), 530 nM.

What is called IC50 is the midpoint of a concentration-inhibition curve.
